Measurements as given in ChEMBL document CHEMBL3091422, “Endothelial lipase inhibitors for the treatment of atherosclerosis and cardiovascular disorders” (ACS Med Chem Lett, 2013).

Columns and labels:
Endothelial lipase [1] = target: T1, Endothelial lipase (Mus musculus, UniProt Q9WVG5); test: Inhibition of mouse endothelial lipase using PLAi as substrate measured for 30 mins by cell-based fluorescence assay
T1 sequence (Q9WVG5 whole entry): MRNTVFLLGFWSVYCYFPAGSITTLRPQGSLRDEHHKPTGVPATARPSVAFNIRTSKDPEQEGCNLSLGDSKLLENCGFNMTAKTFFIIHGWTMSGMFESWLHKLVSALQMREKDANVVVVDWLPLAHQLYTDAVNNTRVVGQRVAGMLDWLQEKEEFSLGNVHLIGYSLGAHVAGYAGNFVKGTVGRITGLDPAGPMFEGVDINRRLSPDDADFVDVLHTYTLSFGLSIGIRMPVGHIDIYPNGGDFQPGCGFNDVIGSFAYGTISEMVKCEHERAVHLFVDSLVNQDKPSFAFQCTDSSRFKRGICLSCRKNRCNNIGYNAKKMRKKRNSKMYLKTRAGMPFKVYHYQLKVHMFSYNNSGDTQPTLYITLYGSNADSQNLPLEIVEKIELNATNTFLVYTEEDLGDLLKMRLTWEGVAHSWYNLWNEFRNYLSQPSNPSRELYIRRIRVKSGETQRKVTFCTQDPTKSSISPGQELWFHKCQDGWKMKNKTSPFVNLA

Endothelial lipase [2] = target: T2, Endothelial lipase (Homo sapiens, UniProt Q9Y5X9); test: Inhibition of human endothelial lipase using PLAi as substrate measured for 30 mins by cell-based fluorescence assay
T2 sequence (Q9Y5X9 whole entry): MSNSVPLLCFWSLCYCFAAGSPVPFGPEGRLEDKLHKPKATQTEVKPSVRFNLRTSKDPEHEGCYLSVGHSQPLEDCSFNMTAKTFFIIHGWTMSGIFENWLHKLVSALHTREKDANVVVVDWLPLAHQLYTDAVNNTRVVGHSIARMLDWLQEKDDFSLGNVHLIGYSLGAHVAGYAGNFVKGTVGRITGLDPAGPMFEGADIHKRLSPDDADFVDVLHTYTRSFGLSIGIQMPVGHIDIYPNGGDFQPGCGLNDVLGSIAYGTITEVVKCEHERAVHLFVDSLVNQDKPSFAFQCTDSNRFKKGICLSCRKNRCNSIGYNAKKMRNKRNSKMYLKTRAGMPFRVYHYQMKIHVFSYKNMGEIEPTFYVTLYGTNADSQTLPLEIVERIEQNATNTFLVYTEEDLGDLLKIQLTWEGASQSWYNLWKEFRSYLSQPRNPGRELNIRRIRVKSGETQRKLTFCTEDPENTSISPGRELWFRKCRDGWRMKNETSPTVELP

Row | IC50 (Endothelial lipase [1]) | IC50 (Endothelial lipase [2]) | SMILES
1 | 33300 nM | 33300 nM | FC(F)(F)c1c(CCCc2ccccc2)n2c3c(cccc13)SCC2
2 | 17 nM | 14 nM | COc1cc2c3c(c1)c(C(F)(F)F)c(CCc1ccccc1)n3CCC2
3 | 4 nM | 4 nM | Nc1cc2c3c(c1)c(C(F)(F)F)c(CCCc1ccccc1)n3CCC2
